Measured values published in paper PMC11413853, “Discovery of VU6007496: Challenges in the Development of an M1 Positive Allosteric Modulator Backup Candidate” (ACS Chemical Neuroscience, 2024).
Like-named read-outs stand apart in the source and are kept apart here.

Legend:
human M1 = biological target: T1, human M1 (Homo sapiens, UniProt P11229); experiment: Calcium mobilization assay, human M1 (agonist and PAM modes); format: cell-based; conditions: for hM1 PAM AChmax (%) / hM1 Agonist AChmax (%): % ACh max
T1 sequence (P11229 1-460): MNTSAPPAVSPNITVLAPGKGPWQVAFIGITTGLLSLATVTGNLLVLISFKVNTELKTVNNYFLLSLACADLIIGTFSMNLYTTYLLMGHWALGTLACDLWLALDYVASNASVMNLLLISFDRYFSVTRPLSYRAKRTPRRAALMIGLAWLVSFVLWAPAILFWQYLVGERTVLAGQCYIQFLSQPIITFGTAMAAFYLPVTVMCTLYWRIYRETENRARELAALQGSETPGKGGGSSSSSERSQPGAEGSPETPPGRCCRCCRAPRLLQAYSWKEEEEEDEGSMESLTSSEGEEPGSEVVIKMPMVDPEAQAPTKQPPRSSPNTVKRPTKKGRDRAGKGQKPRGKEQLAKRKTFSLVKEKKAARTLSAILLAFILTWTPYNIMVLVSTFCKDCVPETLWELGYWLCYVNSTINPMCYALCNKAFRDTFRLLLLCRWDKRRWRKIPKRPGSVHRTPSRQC

[1] = Predicted hepatic clearance, human hepatic microsomes; format: in vitro ADME
Experimental: Intrinsic clearance: Human or rat hepatic microsomes (0.5 mg/mL) and 1 µM test compound were incubated in 100 mM potassium phosphate pH 7.4 buffer with 3 mM MgCl2 at 37 °C with constant shaking. After a 5 min preincubation, the reaction was initiated by the addition of NADPH (1 mM). At selected time intervals (0, 3, 7, 15, 25, and 45 min), aliquots were taken and subsequently placed into a 96-well plate containing cold acetonitrile with internal standard (50 ng/mL carbamazepine). Plates were then centrifuged at 3000 rcf (4 °C) for 10 min, and the supernatant was transferred to a separate 96-well plate and diluted 1:1 with water for LC/MS/MS analysis. The in vitro half-life ( 1/2, min, Eq. 1), intrinsic clearance (CLint, mL/min/kg, Eq. 2), and subsequent predicted hepatic clearance (CLhep, mL/min/kg, Eq. 3) was determined employing the […]
where k represents the slope from linear regression analysis of the natural log percent remaining of a test compound as a function of incubation time […]
(2) CLint = in vitroT1/2 x mg microsomes x gram liver x kg body wt ascale-up factors: of 20 (human) or 45 (rat) […]
where Qh (hepatic blood flow, mL/min/kg) is 21 (human) or 70 (rat).
LC/MS/MS Bioanalysis of Samples from Plasma Protein Binding and Intrinsic Clearance […]
Samples were analyzed on a Thermo Electron TSQ Quantum Ultra triple quad mass spectrometer (San Jose, CA) via electrospray ionization (ESI) with two Themo Electron Accella pumps (San Jose, CA), and a Leap Technologies CTC PAL autosampler (Carrboro, NC). Analytes were separated by gradient elution on a dual column system with two Thermo Hypersil Gold (2.1 x 30 mm, 1.9 µm) columns (San Jose, CA) thermostated at 40 °C. HPLC mobile phase A was 0.1% formic acid in water and mobile phase B was 0.1% formic acid in acetonitrile. The gradient started […]
for 0.2 min; returned to 10% B in 0.1 min. The total run time was 1.3 min and the HPLC flow rate was 0.8 mL/min. […]

[2] = Rat brain homogenate binding; format: in vitro ADME; conditions: brain homogenate (1:3 brain:DPBS, w/w), pH 7.4, read-out: fu,brain (r)
Experimental: Plasma protein binding and Brain homogenate binding: Determination of fraction unbound (f u) in plasma was conducted in vitro via equilibrium dialysis using HTDialysis (HTD) membrane plates. The top half of the plate was filled with 100 uL of Dubelco’s Phosphate Buffered Saline, pH 7.4 (DPBS). Compounds were diluted into plasma from each species (5 µM final concentration), which was aliquoted in triplicate to the ‘bottom half’ of the prepared HTD plate wells. The HTD plate was sealed and incubated for 6 hours at 37 °C. Following incubation, each well (both top and bottom halves) were transferred (20 µL) to the corresponding wells of a 96-shallow-well (V-bottom) plate. The daughter plates were then matrix-matched (DPBS side wells received equal volume of plasma, and plasma side wells received equal volume of DPBS), and extraction solution (120 µL; acetonitrile containing 50 nM carbamazepine as IS) was added to all wells of both daughter plates to precipitate protein and extract test article. The plates were then sealed and centrifuged (3500 rcf) for 10 minutes at ambient temperature. […]
The unbound fraction (f u) was calculated following the equation below, and mean values for each species were calculated from 3 replicates.
A similar approach was used to determine the degree of brain homogenate binding, which employed the same methodology and procedure with the following modifications: 1) a final compound concentration of 1 μM was used, 2) naïve rat brains were homogenized in DPBS (1:3 composition of brain: DPBS, w/w) using a Mini-Bead Beater™ machine in order to obtain brain homogenate, which was then treated in the same manner as the plasma samples in the previously described plasma protein binding assay. Fraction unbound for both plasma and brain samples was determined using Equation 4. […]
The diluted fraction unbound (fu2) in brain was calculated in the same manner by using brain homogenate rather than plasma. Undiluted fraction unbound for the brain was calculated using […]

CYP2C9 = CYP2C9 (Homo sapiens, UniProt P11712); experiment: CYP inhibition, 2C9; format: in vitro ADME
[3] = PAM mode, read-out: hM1 PAM EC50
[4] = agonist mode, read-out: hM1 Agonist EC50
[5] = hM1 PAM EC50, PAM mode, read-out: hM1 PAM pEC50 (converted)
[6] = agonist mode, read-out: human M1 agonism EC50

Chain of CYP2C9 (P11712 whole entry): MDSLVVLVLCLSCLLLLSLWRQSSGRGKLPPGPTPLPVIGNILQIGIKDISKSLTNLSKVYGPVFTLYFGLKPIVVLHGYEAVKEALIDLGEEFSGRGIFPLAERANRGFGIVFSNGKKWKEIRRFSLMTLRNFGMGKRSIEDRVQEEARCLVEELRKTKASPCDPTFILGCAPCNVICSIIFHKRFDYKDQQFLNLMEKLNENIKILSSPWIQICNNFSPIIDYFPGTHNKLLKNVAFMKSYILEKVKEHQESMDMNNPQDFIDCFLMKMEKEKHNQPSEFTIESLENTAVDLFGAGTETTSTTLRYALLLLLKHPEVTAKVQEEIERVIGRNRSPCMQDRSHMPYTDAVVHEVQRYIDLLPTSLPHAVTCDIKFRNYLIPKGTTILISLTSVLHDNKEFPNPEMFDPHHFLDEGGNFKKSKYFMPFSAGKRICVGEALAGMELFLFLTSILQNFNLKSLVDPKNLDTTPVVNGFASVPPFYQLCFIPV

In the case of Cn1ccc(-c2ccc(Cc3cc(C(=O)NC4CCOCC4)nc4ccn(C)c34)cc2)n1 [compound 11], the “hM1 PAM AChmax (%)” value (human M1; PAM mode) is reported as 80%, the EC50 (human M1; [3]) is reported as 228 nM and the “hM1 Agonist AChmax (%)” value (human M1; agonist mode) is reported as 24%. For the same molecule, the EC50 (human M1; [4]) was over 10000 nM, the EC50 (human M1; [5]) was 166 nM and the “Predicted CLhep, human” value [1] was 12 mL/min/kg. The fraction unbound at 6 h, 1 µM [2] was 0.038 and the IC50 (CYP2C9) was 28500 nM.
For Cn1ccc(-c2ccc(Cc3cc(C(=O)NC4CCOCC4)nc4ccsc34)cc2)n1 [compound 12], the “hM1 PAM AChmax (%)” value (human M1; PAM mode) was 73%, the EC50 (human M1; [3]) was 149 nM and the “hM1 Agonist AChmax (%)” value (human M1; agonist mode) was 38%. The EC50 (human M1; [4]) was 3060 nM, the EC50 (human M1; [6]) was 3100 nM and the EC50 (human M1; [5]) was 132 nM. For the same molecule, the “Predicted CLhep, human” value [1] was 7.5 mL/min/kg, the fraction unbound at 6 h, 1 µM [2] was 0.011 and the IC50 (CYP2C9) was 16600 nM.
With Cn1ccc2nc(C(=O)NC3CCOCC3)cc(Cc3ccc(-c4cc[nH]n4)cc3)c21 [compound 24] the “hM1 PAM AChmax (%)” value (human M1; PAM mode) was 73%, the EC50 (human M1; [3]) was 144 nM and the “hM1 Agonist AChmax (%)” value (human M1; agonist mode) was 36%. For the same molecule, the EC50 (human M1; [6]) was 2100 nM, the “Predicted CLhep, human” value [1] was 12.8 mL/min/kg and the fraction unbound at 6 h, 1 µM [2] was 0.025. It also gave an IC50 (CYP2C9) of over 30000 nM.
